ChEMBL document CHEMBL1201862, “PubChem BioAssay data set” (2004)
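These data come from cells grown in 96-well plates and exposed to compound for 48 hours at five concentrations. GI50 is the concentration that inhibits growth by half.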 Activity calls are given as the source filed them. Cut-off read from the data, not from the text of the source: active = GI50 up to about 1.1 µM and inactive = higher.

Tests used:
Assay in all cases: growth of human tumour cells (NCI), 48 h
[1] = test system: SK-OV-3
[2] = test system: TK-10
[3] = test system: A498
[4] = test system: OVCAR-5
[5] = test system: SF-268
[6] = test system: 786-0
[7] = test system: KM12
[8] = test system: SK-MEL-5
[9] = test system: NCI/ADR-RES
[10] = test system: UACC-257
[11] = test system: COLO 205
[12] = test system: A549
[13] = test system: HCT-15
[14] = test system: MDA-MB-231
[15] = test system: CCRF-CEM
[16] = test system: NCI-H23
[17] = test system: HCT-116
[18] = test system: HOP-92
[19] = test system: HL-60
[20] = test system: SR

Compound	GI50 [1]	GI50 [2]	GI50 [3]	GI50 [4]	GI50 [5]	GI50 [6]	GI50 [7]	GI50 [8]	GI50 [9]	GI50 [10]	GI50 [11]	GI50 [12]	GI50 [13] [µM]	GI50 [14]	GI50 [15]	GI50 [16]	GI50 [17]	GI50 [18]	GI50 [19]	GI50 [20]
CC(NC(=O)C(N)CC(=O)O)NC(=O)N1CCOCC1 (stereo not given)	> 100 µM (inactive)	> 100 µM (inactive)	> 100 µM (inactive)	> 100 µM (inactive)	> 100 µM (inactive)	> 100 µM (inactive)	> 100 µM (inactive)	> 100 µM (inactive)	> 100 µM (inactive)	> 100 µM (inactive)	> 100 µM (inactive)	> 100 µM (inactive)	> 100	> 100 µM (inactive)	> 100 µM (inactive)	> 100 µM (inactive)	> 100 µM (inactive)	–	–	–
CCOc1ccc(N/C(=C(/C(Cl)=C(/Cl)Nc2ccccc2)[N+](=O)[O-])n2nnc3ccccc32)cc1	40 µM (inactive)	32.9 µM (inactive)	> 100 µM (inactive)	35.5 µM (inactive)	18.6 µM (inactive)	22.2 µM (inactive)	32.7 µM (inactive)	17.7 µM (inactive)	20 µM (inactive)	34.6 µM (inactive)	20.7 µM (inactive)	29.1 µM (inactive)	12.8	24.5 µM (inactive)	–	13.7 µM (inactive)	22.8 µM (inactive)	16 µM (inactive)	–	–
CC1(C)CC(=O)C(=CNc2nc(-c3ccccc3)cs2)C(=O)C1	> 100 µM (inactive)	24 µM (inactive)	–	> 100 µM (inactive)	–	> 100 µM (inactive)	32.1 µM (inactive)	38.1 µM (inactive)	34.4 µM (inactive)	35.1 µM (inactive)	33 µM (inactive)	49 µM (inactive)	20.2	34.8 µM (inactive)	–	32.4 µM (inactive)	> 100 µM (inactive)	71 µM (inactive)	47.9 µM (inactive)	–
N=C(N)NS(=O)(=O)c1ccc(NCc2c3ccccc3nc3ccccc23)cc1	2.73 µM (inactive)	64.1 µM (inactive)	1.17 µM (inactive)	33.3 µM (inactive)	0.679 µM (active)	1.07 µM (active)	6.24 µM (inactive)	2.62 µM (inactive)	–	14.5 µM (inactive)	> 80.9 µM (inactive)	0.338 µM (active)	40.3	23 µM (inactive)	0.0782 µM (active)	1.09 µM (active)	3.01 µM (inactive)	0.24 µM (active)	0.0679 µM (active)	0.0363 µM (active)
O=[N+]([O-])c1ccc(N/N=C2/CC3=C2CCCCCCCCCC3)c([N+](=O)[O-])c1	> 100 µM (inactive)	94.4 µM (inactive)	88.9 µM (inactive)	> 100 µM (inactive)	> 100 µM (inactive)	80.9 µM (inactive)	> 100 µM (inactive)	> 100 µM (inactive)	> 100 µM (inactive)	> 100 µM (inactive)	> 100 µM (inactive)	> 100 µM (inactive)	> 100	32.7 µM (inactive)	> 100 µM (inactive)	> 100 µM (inactive)	> 100 µM (inactive)	–	–	–
COc1ccc(N(c2ccc(C#N)cc2)c2ccc(C#N)cc2)cc1	> 100 µM (inactive)	> 100 µM (inactive)	65.3 µM (inactive)	> 100 µM (inactive)	> 100 µM (inactive)	> 100 µM (inactive)	8.43 µM (inactive)	> 100 µM (inactive)	–	> 100 µM (inactive)	31.9 µM (inactive)	> 100 µM (inactive)	75.2	> 100 µM (inactive)	3.07 µM (inactive)	29.4 µM (inactive)	93.5 µM (inactive)	> 100 µM (inactive)	3.97 µM (inactive)	–
CC1=CC2(C)C=C[C@@H]1C(=O)[C@@]1(C)CC[C@@](O)(C(C)C)[C@H]1CC2	23.6 µM (inactive)	36.6 µM (inactive)	28.6 µM (inactive)	17.9 µM (inactive)	23.8 µM (inactive)	17.3 µM (inactive)	20.3 µM (inactive)	19.7 µM (inactive)	20.2 µM (inactive)	16.4 µM (inactive)	20.7 µM (inactive)	34.6 µM (inactive)	24.2	17.5 µM (inactive)	21.6 µM (inactive)	19.1 µM (inactive)	17.3 µM (inactive)	14.4 µM (inactive)	–	–
CC(C)(C)c1ccc(C(C)(C)C)c(N2C(=O)C3ON=C(c4ccc([N+](=O)[O-])cc4)C3C2=O)c1 (stereo not given)	> 25 µM (inactive)	> 25 µM (inactive)	5.96 µM (inactive)	> 25 µM (inactive)	13.7 µM (inactive)	3.15 µM (inactive)	> 25 µM (inactive)	> 25 µM (inactive)	17.3 µM (inactive)	> 25 µM (inactive)	> 25 µM (inactive)	5.61 µM (inactive)	20.3	–	> 25 µM (inactive)	> 25 µM (inactive)	13.7 µM (inactive)	9.46 µM (inactive)	> 25 µM (inactive)	3.48 µM (inactive)
CCCCCCc1cc2cc(-c3csc(-c4ccc(OC)cc4)n3)c(=O)oc2cc1O	15.2 µM (inactive)	14 µM (inactive)	–	26.7 µM (inactive)	4.79 µM (inactive)	5.28 µM (inactive)	24.8 µM (inactive)	9.06 µM (inactive)	–	8.51 µM (inactive)	51.8 µM (inactive)	16.7 µM (inactive)	17.1	11 µM (inactive)	22.6 µM (inactive)	–	7.19 µM (inactive)	3.57 µM (inactive)	33.3 µM (inactive)	19.6 µM (inactive)
CC(C)(CO)N1C(=O)c2ccccc2C1(O)c1ccc(Cl)cc1 (stereo not given)	> 100 µM (inactive)	> 100 µM (inactive)	–	> 100 µM (inactive)	> 100 µM (inactive)	> 100 µM (inactive)	> 100 µM (inactive)	> 100 µM (inactive)	> 100 µM (inactive)	> 100 µM (inactive)	> 100 µM (inactive)	> 100 µM (inactive)	> 100	> 100 µM (inactive)	> 100 µM (inactive)	> 100 µM (inactive)	> 100 µM (inactive)	–	> 100 µM (inactive)	–
CC(=O)C(C(C)=O)[C@H]1OC(C)(C)O[C@H]1[C@H]1COC(C)(C)O1	29.2 µM (inactive)	> 100 µM (inactive)	> 100 µM (inactive)	> 100 µM (inactive)	63.8 µM (inactive)	51.3 µM (inactive)	35.7 µM (inactive)	29.1 µM (inactive)	28.6 µM (inactive)	49.4 µM (inactive)	17.7 µM (inactive)	42.6 µM (inactive)	29.6	28.6 µM (inactive)	36.9 µM (inactive)	30.8 µM (inactive)	45.2 µM (inactive)	80 µM (inactive)	–	–
CC1(C)CCC2=C(O1)c1ccccc1C(=O)C2=O [LAPACHONE]	1.85 µM (inactive)	2.24 µM (inactive)	5.42 µM (inactive)	0.571 µM (active)	0.682 µM (active)	1.2 µM (inactive)	1.36 µM (inactive)	0.272 µM (active)	–	0.0938 µM (active)	1.91 µM (inactive)	0.753 µM (active)	–	0.507 µM (active)	0.908 µM (active)	0.427 µM (active)	0.277 µM (active)	3.15 µM (inactive)	–	0.215 µM (active)
